Results taken from patent US20240327429A1, “[1,3]Thiazolo[4,5-d]-pyrimidon-7-ones as inhibitors of NOX4” (Boehringer Ingelheim International GmbH, priority 2023, published 2024).

Assays:
human hepatocytes = assay: Evaluation of hepatocyte clearance (metabolic stability); format: in vitro ADME; settings: 1 μM test compound, 5% human serum, Table 3
Procedure, shortened: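 Cryopreserved human hepatocytes (typically 1 Mio cells/mL) in supplemented DMEM with 5% human serum incubated with 1 μM compound (0.05% DMSO) at 37° C, sampled to 6 hours. Parent decline by HPLC-MS/MS; CLint = Dose/AUC, scaled to in vivo blood CL via well-stirred model.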

NOX2 = target: T1, NOX2 (Homo sapiens, UniProt P04839); assay: NOX2 inhibition assay (L-012), human blood-derived granulocytes; format: cell-based; settings: fMLP/PMA stimulated
T1 construct: endogenous in cells; host or cells: freshly isolated human blood-derived granulocytes
T1 sequence (P04839 2-570 limits assumed): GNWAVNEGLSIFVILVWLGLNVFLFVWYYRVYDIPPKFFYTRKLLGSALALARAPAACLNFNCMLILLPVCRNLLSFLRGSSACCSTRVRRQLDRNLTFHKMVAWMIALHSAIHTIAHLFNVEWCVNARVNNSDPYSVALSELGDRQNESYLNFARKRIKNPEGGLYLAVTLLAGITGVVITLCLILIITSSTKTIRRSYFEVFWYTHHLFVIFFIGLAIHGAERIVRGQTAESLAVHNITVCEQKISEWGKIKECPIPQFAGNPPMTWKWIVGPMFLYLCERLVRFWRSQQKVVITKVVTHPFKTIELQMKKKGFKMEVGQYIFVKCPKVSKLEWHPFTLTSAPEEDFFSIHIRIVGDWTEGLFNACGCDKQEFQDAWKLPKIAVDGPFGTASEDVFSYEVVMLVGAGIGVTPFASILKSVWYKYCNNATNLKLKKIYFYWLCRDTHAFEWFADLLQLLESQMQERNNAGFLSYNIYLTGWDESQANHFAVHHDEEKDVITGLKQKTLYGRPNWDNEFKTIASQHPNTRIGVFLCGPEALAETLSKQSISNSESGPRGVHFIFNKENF
T1 sequence (P13498 2-195 partner limits assumed): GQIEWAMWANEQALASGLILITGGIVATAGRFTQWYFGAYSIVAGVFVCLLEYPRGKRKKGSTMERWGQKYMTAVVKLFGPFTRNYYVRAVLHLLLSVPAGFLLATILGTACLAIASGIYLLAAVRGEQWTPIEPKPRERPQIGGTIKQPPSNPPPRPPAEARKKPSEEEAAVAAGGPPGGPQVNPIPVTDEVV
Method: Evaluation of the NOX4 inhibitors on NOX2 activity is assessed in human blood-derived granulocytes.
Afterwards, freshly isolated granulocytes are added to the wells containing the compounds in assay buffer and incubated for 1 h at 37° C. Next, a solution of Nformylmethionine-leucyl-phenylalanine (fMLP; 730 nM), phorbol myristate acetate (PMA, 100 nM) (stimuli of ROS production) and L-012 (200 μM, ROS indicator) is added to the wells and the cells are incubated for additional 30 mins at 37° C. Afterwards luminescence is measured in a SpectraMax M5 microplate reader.

human NOX5 (hNOX5) = target: T2, human NOX5 (hNOX5) (Homo sapiens, UniProt Q96PH1); assay: NOX5 inhibition assay (L-012), HEK293 cells stably overexpressing human NOX5; format: cell-based; settings: HEK293-hNOX5, PMA stimulated
T2 construct: expressed in transfected cells; host or cells: HEK293
T2 sequence (Q96PH1 1-765): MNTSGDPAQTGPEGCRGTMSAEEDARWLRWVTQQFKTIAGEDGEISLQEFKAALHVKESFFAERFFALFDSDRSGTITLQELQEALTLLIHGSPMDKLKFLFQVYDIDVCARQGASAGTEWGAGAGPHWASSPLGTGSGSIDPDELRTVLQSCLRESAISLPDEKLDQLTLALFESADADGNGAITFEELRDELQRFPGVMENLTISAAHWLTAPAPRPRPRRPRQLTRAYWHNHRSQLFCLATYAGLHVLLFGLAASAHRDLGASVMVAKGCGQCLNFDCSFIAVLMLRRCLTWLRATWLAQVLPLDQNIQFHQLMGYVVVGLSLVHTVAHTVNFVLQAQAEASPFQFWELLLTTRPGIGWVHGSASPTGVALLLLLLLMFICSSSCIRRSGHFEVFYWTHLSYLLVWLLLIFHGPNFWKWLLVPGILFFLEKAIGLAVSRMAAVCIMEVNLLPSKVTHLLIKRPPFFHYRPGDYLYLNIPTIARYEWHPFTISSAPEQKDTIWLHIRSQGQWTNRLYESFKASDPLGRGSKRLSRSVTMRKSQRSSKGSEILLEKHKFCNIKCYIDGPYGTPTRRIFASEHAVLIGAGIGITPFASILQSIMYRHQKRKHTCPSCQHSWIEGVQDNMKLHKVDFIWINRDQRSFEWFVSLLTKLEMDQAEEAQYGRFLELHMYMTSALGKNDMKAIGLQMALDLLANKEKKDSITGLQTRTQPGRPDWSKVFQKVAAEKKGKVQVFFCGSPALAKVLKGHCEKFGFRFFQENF
Method: The synthetic gene hNOX5 (Accession: Q96PH1) is cloned into pcDNA3.1_Zeo. […] The final construct is verified by sequencing.
Evaluation of the NOX4 inhibitors on NOX5 activity is assessed in HEK293 cells stably overexpressing human NOX5 (hNOX5).
Cells are seeded in 384 well plates over-night. […] Cells are then stimulated with PMA at 0.1 μM to induce NOX5-dependent ROS production. […] Luminescence is measured with an PHERAstar multimode reader.

`O=c1c2scnc2nc(SCc2c(F)cc(F)cc2F)n1-c1cc(F)c(O)c(F)c1` [Example 8] was tested, and the “Qh [%]” value (human hepatocytes) was 42%, the IC50 (NOX2) was > 30 µM and the IC50 (human NOX5 (hNOX5)) was > 100 µM.
`Cc1cc(F)cc(C)c1CSc1nc2ncsc2c(=O)n1-c1cc(F)c(O)c(F)c1` [Example 4] was tested, and the “Qh [%]” value (human hepatocytes) was 41%, the IC50 (NOX2) was > 100 µM and the IC50 (human NOX5 (hNOX5)) was > 100 µM.
`Cc1cc(Cl)ccc1CSc1nc2ncsc2c(=O)n1-c1cnc(O)c(F)c1` [Example 37] was tested, and the “Qh [%]” value (human hepatocytes) was 16%, the IC50 (NOX2) was > 100 µM and the IC50 (human NOX5 (hNOX5)) was 64.5 µM.
In the case of `N#Cc1cc(-n2c(SCc3c(F)cc(F)cc3F)nc3ncsc3c2=O)ccc1O` [Example 18], the “Qh [%]” value (human hepatocytes) is reported as 48%, the IC50 (NOX2) is reported as > 30 µM and the IC50 (human NOX5 (hNOX5)) is reported as > 100 µM.
In the case of `O=c1c2scnc2nc(SCc2c(F)cc(F)cc2F)n1-c1cnc(O)cn1` [Example 69, 6-(5-Hydroxypyrazin-2-yl)-5-((2,4,6-trifluorobenzyl)thio)thiazolo[4,5-d]pyrimidin-7(6H)-one], the “Qh [%]” value (human hepatocytes) is reported as <4%, the IC50 (NOX2) is reported as > 100 µM and the IC50 (human NOX5 (hNOX5)) is reported as > 100 µM.
`O=c1c2scnc2nc(SCc2c(F)cc(F)cc2F)n1-c1ccc(O)nc1F` [Example 50, 6-(2-Fluoro-6-hydroxypyridin-3-yl)-5-((2,4,6-trifluorobenzyl)thio)thiazolo[4,5-d]-pyrimidin-7(6H)-one] was tested, and the “Qh [%]” value (human hepatocytes) was 19%, the IC50 (NOX2) was > 100 µM and the IC50 (human NOX5 (hNOX5)) was 60.2 µM.
In the case of `O=c1c2scnc2nc(SCc2c(F)cc(F)cc2F)n1-c1ccc(O)nc1` [Example 28], the “Qh [%]” value (human hepatocytes) is reported as 29%, the IC50 (NOX2) is reported as > 30 µM and the IC50 (human NOX5 (hNOX5)) is reported as > 100 µM.
`O=c1c2scnc2nc(SCc2c(F)cc(F)cc2F)n1-c1ccc(O)cn1` [Example 19] was tested, and the “Qh [%]” value (human hepatocytes) was 52%, the IC50 (NOX2) was 48.1 µM and the IC50 (human NOX5 (hNOX5)) was > 100 µM.
`O=c1c2scnc2nc(SCc2c(F)cc(F)cc2F)n1-c1cnc(O)c(Cl)c1` [Example 48, 6-(5-Chloro-6-hydroxypyridin-3-yl)-5-((2,4,6-trifluorobenzyl)thio)thiazolo[4,5-d]pyri-midin-7(6H)-one] was tested, and the “Qh [%]” value (human hepatocytes) was 22%, the IC50 (NOX2) was > 100 µM and the IC50 (human NOX5 (hNOX5)) was > 100 µM.
In the case of `Cc1cc(F)ccc1CSc1nc2ncsc2c(=O)n1-c1cnc(O)c(F)c1` [Example 36], the “Qh [%]” value (human hepatocytes) is reported as 34%, the IC50 (NOX2) is reported as > 100 µM and the IC50 (human NOX5 (hNOX5)) is reported as > 100 µM.
In the case of `O=c1c2scnc2nc(SCc2c(F)ccc(F)c2F)n1-c1cnc(O)c(F)c1` [Example 45], the “Qh [%]” value (human hepatocytes) is reported as 23%, the IC50 (NOX2) is reported as > 100 µM and the IC50 (human NOX5 (hNOX5)) is reported as 79 µM.
